Measurements reported in patent US20110223157A1, “METHODS FOR THE TREATMENT OF NON-HODGKIN'S LYMPHOMAS USING LENALIDOMIDE, AND GENE AND PROTEIN BIOMARKERS AS A PREDICTOR” (priority 2010, published 2011).
Read-outs that look alike come from different tables or passages of the source.

Key:
Format in all cases: cell-based
NFκB p50 = NFκB p50 activity, Active Motif transcription factor assay on nuclear extracts of treated DLBCL cells; settings: 2 days; for inhibition at 1 µM / inhibition at 10 µM: read-out: P50 Inhibition (%) mean ± SD
Protocol: (§1) DLBCL cells were treated with lenalidomide or an IKK1/2 dual inhibitor (used as a positive inhibitor control) for 2 days. NFκB activity was examined with Active Motif transcription factor assay using nuclear extracts from cells following treatment.

DLBCL cell lines = assay: Proliferation of DLBCL cells in vitro, 3H-thymidine incorporation
Protocol: A panel of DLBCL cell lines of various cytogenetic features was tested for their sensitivity to the antiproliferative activity of lenalidomide. Cells were treated with lenalidomide for 5 days at 37° C.; proliferation of cells was determined using ^3H-thymidine incorporation method. Results of 3 independent experiments are shown (mean±SD). […] ABC-subtype cells appear more sensitive to the antiproliferative effect than other subtype cells including GCB-DLBCL and PMBL cells.

NFκB p65 = NFκB p65 activity, Active Motif transcription factor assay on nuclear extracts of treated DLBCL cells; settings: 2 days; for inhibition at 1 µM / inhibition at 10 µM: read-out: P65 Inhibition (%) mean ± SD
Protocol: as §1

[1] = 48 h, KARPS-1160p cells (PBML), 1 μM
[2] = Homo sapiens, OCI-Ly3, 48 h, OCI-Ly3 cells, 1 μM
[3] = Homo sapiens, OCI-Ly3, 48 h, OCI-Ly3 cells
[4] = Homo sapiens, OCI-Ly10, 48 h, OCI-Ly10 cells, 1 μM
[5] = Homo sapiens, OCI-Ly10, 48 h, OCI-Ly10 cells
[6] = Homo sapiens, TMD8, 48 h, TMD8 cells, 1 μM
[7] = Homo sapiens, TMD8, 48 h, TMD8 cells

Question: Which “Effect on NFκB p50 activity” value (NFκB p50; 1 μM, U2932 cells, p<0.05) does the source give for `Nc1cccc2c1CN(C1CCC(=O)NC1=O)C2=O` (stereo not drawn) [lenalidomide, 3-(4-amino-1-oxo-1,3-dihydro-isoindol-2-yl)-piperidine-2,6-dione] here?
Answer: significantly inhibits

Question: What about the inhibition at 1 µM (NFκB p50; [1]) of the same compound?
Answer: 14.5 ± 0.95%

Question: And the inhibition at 10 µM (NFκB p50; 48 h, KARPS-1160p cells (PBML))?
Answer: 16.4 ± 0.28%

Question: And the inhibition at 1 µM (NFκB p50; 48 h, RIVA cells, 1 μM)?
Answer: 11.1 ± 11.7%

Question: And the inhibition at 10 µM (NFκB p50; 48 h, RIVA cells)?
Answer: 28.6 ± 21%

Question: And the inhibition at 1 µM (NFκB p50; 48 h, U2392 cells, 1 μM)?
Answer: 32.5 ± 14.3%

Question: And the inhibition at 1 µM (NFκB p50; [2])?
Answer: -10.3 ± 19.7%

Question: And the inhibition at 10 µM (NFκB p50; [3])?
Answer: -9.5 ± 19.1%

Question: And the inhibition at 1 µM (NFκB p50; [4])?
Answer: 22.7 ± 18.8%

Question: And the inhibition at 10 µM (NFκB p50; [5])?
Answer: 22.6 ± 14.1%

Question: And the inhibition at 1 µM (NFκB p50; [6])?
Answer: 14.4 ± 16.4%

Question: And the inhibition at 10 µM (NFκB p50; [7])?
Answer: 48.5 ± 40.2%

Question: And the Effect on proliferation (DLBCL cell lines; ABC cell lines U2392, RIVA, TMD8 and OCI-Ly10)?
Answer: significantly inhibits

Question: What about the “Starting concentration of significant (p<0.05) inhibition of proliferation” value (DLBCL cell lines; several DLBCL lines, particularly ABC-subtype Riva, U2932, TMD8, OCI-Ly10, 5 days at 37° C.) of the same compound?
Answer: 0.1 to 1 µM

Question: And the “Effect on NFκB p65 activity” value (NFκB p65; 1 μM, U2932 cells, p<0.001)?
Answer: significantly inhibits

Question: What about the inhibition at 1 µM (NFκB p65; [1]) of the same compound?
Answer: 5.9 ± 0.49%

Question: And the inhibition at 10 µM (NFκB p65; 48 h, KARPS-1160p cells (PBML))?
Answer: 5.4 ± 0.35%

Question: And the inhibition at 1 µM (NFκB p65; 48 h, RIVA cells, 1 μM)?
Answer: 19.3 ± 15.6%

Question: What about the inhibition at 10 µM (NFκB p65; 48 h, RIVA cells) of the same compound?
Answer: 41.7 ± 26.8%

Question: What about the inhibition at 1 µM (NFκB p65; 48 h, U2392 cells, 1 μM) of the same compound?
Answer: 40 ± 3.7%

Question: And the inhibition at 10 µM (NFκB p65; 48 h, U2392 cells)?
Answer: 47.9 ± 6.2%

Question: What about the inhibition at 1 µM (NFκB p65; [2]) of the same compound?
Answer: -17.4 ± 13.4%

Question: What about the inhibition at 10 µM (NFκB p65; [3]) of the same compound?
Answer: -15.8 ± 15%

Question: And the inhibition at 1 µM (NFκB p65; [4])?
Answer: 27.6 ± 20.7%

Question: And the inhibition at 10 µM (NFκB p65; [5])?
Answer: 22 ± 12.2%

Question: What about the inhibition at 1 µM (NFκB p65; [6]) of the same compound?
Answer: 14.1 ± 9%

Question: What about the inhibition at 10 µM (NFκB p65; [7]) of the same compound?
Answer: 49.7 ± 32.8%
